Data: US20070212331A1, “Methods and compositions for selectively killing cells” (priority 2006, published 2007)
Entries after “also recorded” stand apart in the source; their conditions may differ. Read-outs that look alike come from different tables or passages of the source. Where a SMILES comes first, the peptide text is derived from it. The star is where a group is joined. Cbz = O=C(OCc1ccccc1)*; CH2F = FC*

What was measured:
Format in all cases: cell-based
[1] = test system: IIC9 cells (embryonic fibroblasts); experiment: IIC9 cell death by trypan blue uptake; details: for effect on cell viability: high (mM) concentrations; for attenuation of zinc-induced cell death: Z-VAD preincubation
[2] = test system: PC12 cells; experiment: Zinc-induced cell death of PC12 cells; details: for effect on cell viability: high (mM) concentrations
[3] = test system: ERK1/2; experiment: ERK1/2 activation in IIC9 cells, Western blot with anti-pERK antibody; details: IIC9 cells preincubated with inhibitor
Experimental: (§1) Assays: ERK1/2 activation was determined by harvesting cells directly in boiling SDS-PAGE sample buffer and probing corresponding Western Blots with anti-pERK antibody (Cell Signaling). Blots were stripped and reprobed for total ERK (Cell Signaling). Ras activation was determined using the Raf-RBD assay (21,24). Identification of the specific Ras isoform activated was determined by probing the western blot with isoform-specific antibody (Upstate Biotechnology). Transfection of IIC9 cells was carried out using Novafector. Transfection efficiency of these cells is approximately 90%. The constructs for expression of dn-Ras and Bcl-Xl were kindly provided by Dr. J. Corbett and Dr. Chinnaduri (SLU).

[4] = test system: ERK; experiment: ERK activation (pERK) in PC12 cells; details: PC12 cells preincubated with inhibitor
[5] = test system: IIC9 cells (embryonic fibroblasts); experiment: IIC9 cell morphology, microscopic examination; details: cells preincubated with inhibitor, 50 μM zinc (FIG. 2B-D)
Experimental: FIG. 1 depicts zinc-induced cell death in a time and dose dependent manner. (A) IIC9 cells (embryonic fibroblasts) were serum starved for 2 days and treated with the indicated concentrations of zinc for the indicated time periods. Cell death was monitored by trypan blue exclusion as described in the Materials and Methods. (B-D) Zinc-induced cell death is accompanied by morphological changes associated with apoptosis and necrosis. Shown are cells that were incubated with either 50 μM (C) or 200 μM (D) zinc for 6 hours. Control cells (B) were untreated. Cells were examined microscopically for changes in cell shape and size. […] Cell debris, indicative of cell lysis, was evident.
Cells and Incubation Conditions: IIC9 cells were grown in DMEM containing 10% FCS, P/S. Cells were plated in 12-well plates and grown to approximately 70% confluency. At that time, cells were serum arrested by changing the medium to DMEM (low glucose) without FCS. After 48 hours, cells were treated with zinc as described in the text. Cell death was quantified by trypan blue uptake. Cells were incubated with trypan blue (0.04%) for 5 min. Cells were examined microscopically and the number of blue cells and total cells were counted. Four fields were examined for each condition, with a minimum of 100 cells/field. To examine the effects of selective inhibitors, cells were preincubated with the indicated compound for 30 min. prior to zinc treatment.

[6] = test system: Ras; experiment: Ras activation in IIC9 cells, Raf-RBD pull-down assay
Experimental: as §1
Because Ras is a common upstream activator of ERK1/2 (36), we reasoned that zinc may induce the phosphorylation of ERK1/2 via Ras. This was examined by incubating IIC9 cells with 100 uM zinc and assessing Ras activation by RBD pull-down of GTP-Ras followed by Western blot analysis with a pan-Ras antibody. […] The critical role of Ras in mediating the effects of zinc was confirmed by examining the effect of over-expression of dnRas. […] Consistent with Ras as the upstream activator of the cytotoxic effect of zinc on IIC9, expression of dn H-Ras also attenuates zinc-mediated cell death (FIG. 5B).

[7] = PC12 cells, same range of concentrations as zinc
[8] = IIC9 cells, same range of concentrations as zinc

Compound: [Ca] [Ca]
- effect on cell viability ([1]; IIC9 cells): no effect on cell viability
- effect on cell viability ([2]; PC12 cells): no effect on cell viability

Compound: [Cd] [Cd]
- cell death (apoptosis or necrosis) by metal salts [2, 7]: did result in cell death

Compound: [Cl-].[Cl-].[Co+2] [CoCl2]
- cell death by metal salts [1]: does not result in the cell death
- cell death (apoptosis or necrosis) by metal salts [2]: No cell death

Compound: O=S(=O)([O-])[O-].[Cu+2] [CuSO4]
- cell death by metal salts [1, 8]: does not result in the cell death
- cell death (apoptosis or necrosis) by metal salts [2, 7]: No cell death

Compound: [Li] [Li]
- effect on cell viability ([1]; IIC9 cells): no effect on cell viability
- effect on cell viability ([2]; PC12 cells): no effect on cell viability

Compound: [Mg] [Mg]
- effect on cell viability ([1]; IIC9 cells): no effect on cell viability
- effect on cell viability ([2]; PC12 cells): no effect on cell viability

Compound: [Mn] [Mn]
- effect on cell viability ([1]; IIC9 cells): no effect on cell viability
- effect on cell viability ([2]; PC12 cells): no effect on cell viability

Compound: [Cl][Ni][Cl] [NiCl2]
- cell death by metal salts [1, 8]: does not result in the cell death
- cell death (apoptosis or necrosis) by metal salts [2, 7]: No cell death

Compound: COc1cc2ncnc(Nc3cccc(Br)c3)c2cc1OC [PD153035]
- effect of inhibitor on ERK activation by zinc [3]: does not alter ERK activation

Compound: CC(C)(C)n1nc(-c2ccc(Cl)cc2)c2c(N)ncnc21 [PP2]
- effect of inhibitor on ERK activation by zinc [3]: does not inhibit zinc activation of ERK1/2

Compound: C[S+]([O-])c1ccc(-c2nc(-c3ccncc3)c(-c3ccc(F)cc3)[nH]2)cc1 (stereo not drawn) [SB203580]
- effect of preincubation with inhibitor on zinc-mediated cell death ([1]; 30 min preincubation, then 50 μM zinc (FIG. 2A)): does not affect zinc-mediated cell death

Compound: N#CC(=C(/N)Sc1ccccc1N)/C(C#N)=C(\N)Sc1ccccc1N [U0126]
- effect of inhibitor on ERK activation by zinc [3]: significantly reduces ERK activation; also recorded: significantly reduced
- cell death in cells pretreated with inhibitor [1]: Little or no death
- effect of preincubation with inhibitor on zinc-mediated cell death [1]: inhibits zinc-induced cell death
- effect of preincubation on zinc-induced ERK activation [4]: attenuated that activation
- effect of preincubation on zinc-induced cell death [2]: greatly attenuated
- effect on morphological changes induced by zinc [5]: limited; also recorded: prevented the morphological changes

Compound: CC(NC(=O)C(NC(=O)OCc1ccccc1)C(C)C)C(=O)NC(CC(=O)O)C(=O)CF (stereo not drawn) [Z-VAD] (Cbz-Val-Ala-Asp-CH2F; configuration not given here)
- cell death in cells pretreated with Z-VAD ([1]; 50 μM zinc, first 6 hours of zinc treatment): little cell death
- attenuation of zinc-induced cell death ([1]; 50 μM zinc, 21 h): 50%
- attenuation of zinc-induced cell death ([1]; 100 μM zinc, 21 h): limited attenuation
- attenuation of zinc-induced cell death ([1]; 100 μM zinc, first 6 hours): approximately 50%
- effect of Z-VAD on zinc-mediated cell death ([1]; early hours (3-6), indicated zinc concentrations (FIG. 3A)): greatly attenuated death

Compound: O=S(=O)([O-])[O-].[Zn+2] [ZnSO4]
- cell death by metal salts [1, 8]: equally effective as ZnCl2
- cell death (apoptosis or necrosis) by metal salts [2, 7]: equally effective as ZnCl2

Compound: thrombin
- activation of Ras ([6]; IIC9 cells stimulated with thrombin, previous finding of the inventors): 3- to 5 fold
- Ras isoform activated ([6]; IIC9 cells, isoform-specific antibody): rapid activation of N-Ras, followed by a sustained activation of K-Ras
